Measurements published in article PMC12430443, “Discovery of Novel Benzamide-Based Sigma-1 Receptor Agonists with Enhanced Selectivity and Safety” (Molecules, 2025).
pIC50: −log10 of the molar value. Read-outs that look alike come from different tables or passages of the source.

What was measured:
[1] = biological target: T1, S1R-BiP complex (Cricetulus griseus, UniProt A0A3L7I3A5); assay: S1R-BiP complex dissociation, co-immunoprecipitation and BiP ELISA in CHO cells; format: cell-based; details: for Dissociation of the S1R-BiP complex (in words): 1 and 10 µM, 30 min incubation, CHO cells, n = 6
T1 construct: host or cells: CHO cells
T1 sequence (A0A3L7I3A5 1-223, one chain of several): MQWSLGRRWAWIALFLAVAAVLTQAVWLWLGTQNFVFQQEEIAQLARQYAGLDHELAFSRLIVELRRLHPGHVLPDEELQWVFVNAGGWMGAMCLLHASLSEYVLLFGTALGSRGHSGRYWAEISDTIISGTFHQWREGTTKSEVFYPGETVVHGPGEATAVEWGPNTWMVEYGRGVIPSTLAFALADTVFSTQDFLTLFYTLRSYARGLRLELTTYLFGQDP
Procedure: The interaction between S1R and BiP provides a reliable assay to identify S1R ligands by monitoring the dynamics of the S1R-BiP complex. In this assay, the known S1R agonist PRE-084 and antagonist NE-100 were used as controls (Figure 3).
The ability of the compounds to promote dissociation of the S1R–BiP complex was assessed by Amylgen (Montferrier-sur-Lez, France) as described in [22, 23]. CHO cells were treated with the test compounds for 30 min at 37 °C, followed by crosslinking with dithiobis(succinimidyl propionate) (DSP; Thermo Scientific, Waltham, MA, USA). Cells were lysed after 15 min on ice, and the lysates were centrifuged. Supernatants were incubated overnight at 4 °C with an anti-S1R antibody (Abcam, Cambridge, UK), and then with Protein A-Sepharose (Invitrogen). After the first centrifugation, pellets were resuspended in radioimmunoprecipitation assay (RIPA) buffer, centrifuged again, and resuspended in 2× sample buffer/bMCE buffer. Following a third centrifugation, the supernatants were analyzed for BiP immunoreactivity using an ELISA kit (SEC343Mu, USCNK Life Sciences, Wuhan, China).
Figure 3 In vitro evaluation of agonist activity of compounds 2, 3, and 6: The effects of compounds 2, 3, and 6 at 1 and 10 µM on the S1R-BiP association after 30 min of incubation were analyzed by co-immunoprecipitation using an anti-S1R antibody (red). BiP levels were quantified by ELISA. PRE-084 (white) and NE-100 (black) served as the reference agonist and antagonist, respectively (10 µM). Agonist activity was confirmed by its blockade with NE-100 (black hatching). […] Data represent the mean ± SEM from n = 6 per condition. Statistical significance was assessed using Dunnett’s test: *** p < 0.0001, * p < 0.05 vs. untreated control; ### p < 0.0001, # p < 0.05 for NE-100 blockade.

[2] = Microsomal stability; format: in vitro ADME; details: human, liver microsomes
Procedure: (§1) Microsomal stability was evaluated using human liver microsomes at 10 µM (Table 3). […] Since cytochrome P450 (CYP) enzymes—especially families 1 to 3—play major roles in drug metabolism, CYP inhibition was tested against the human isoforms CYP1A, 2B6, 2C8, 2C9, 2C19, 2D6, and 3A, as recommended by FDA and EMA guidelines. […] Membrane transport proteins, including the ATP-binding cassette (ABC) and solute carrier (SLC) families, affect drug pharmacokinetics and potential drug–drug interactions. The inhibitory effects of compounds 2 and 6 were assessed against five ABC transporters (P-gp, BCRP, MRP1, MRP2, and MRP3) and seven SLC transporters (OAT1, OAT3, OATP1B1, OCT1, OCT2, ASBT, and NTCP).

[3] = biological target: BCRP (Homo sapiens, UniProt Q9UNQ0); assay: Transporter inhibition in overexpressing cell lines; format: in vitro ADME; details: ABC family, n = 2, read-out: Drug transport inhibition BCRP
Chain of BCRP (Q9UNQ0 whole entry): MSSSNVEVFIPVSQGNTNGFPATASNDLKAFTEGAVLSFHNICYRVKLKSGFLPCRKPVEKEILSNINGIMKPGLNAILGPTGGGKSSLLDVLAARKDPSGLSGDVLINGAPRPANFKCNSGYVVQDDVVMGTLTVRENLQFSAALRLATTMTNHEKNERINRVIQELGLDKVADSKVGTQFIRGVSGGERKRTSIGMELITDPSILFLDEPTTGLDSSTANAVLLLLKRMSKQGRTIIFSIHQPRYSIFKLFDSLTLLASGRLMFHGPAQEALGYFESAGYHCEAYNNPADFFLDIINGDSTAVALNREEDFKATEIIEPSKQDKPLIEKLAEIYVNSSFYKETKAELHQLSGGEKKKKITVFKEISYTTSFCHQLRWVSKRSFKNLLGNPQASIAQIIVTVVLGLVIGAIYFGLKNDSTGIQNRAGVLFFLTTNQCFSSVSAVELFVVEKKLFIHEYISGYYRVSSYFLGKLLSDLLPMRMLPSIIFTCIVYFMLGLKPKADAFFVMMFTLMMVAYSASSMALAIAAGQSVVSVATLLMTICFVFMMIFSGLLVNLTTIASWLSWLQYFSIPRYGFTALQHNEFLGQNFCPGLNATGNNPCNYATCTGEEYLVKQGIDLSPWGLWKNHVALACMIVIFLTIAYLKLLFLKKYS
Procedure: as §1
(§2) Standardized in vitro ADME experiments were performed by Eurofins Cerep (Poitiers, France). Solubility assays were performed in PBS at pH 7.4, but also in simulated gastric fluid (SGF) and intestinal fluid (SIF), through the classical shake-flask method described by Lipinski et al., using HPLC-UV/VIS technology. The results were expressed in µM. The compound was classically evaluated at 10 µM for all of the ADME analyses. Bidirectional permeability (apical A to basolateral B pH 6.5/7.4, and basolateral B to apical A pH 7.4/6.5) was assessed in the epithelial colorectal adenocarcinoma cell line (Caco-2 cell line). The results were expressed as ×10^−6 cm/s (Papp) and as % recovery. The efflux ratio, i.e., Papp (B→A)/Papp(A→B), was calculated. Plasma protein binding was analyzed by HPLC-MS/MS after 4 h of incubation at 37 °C, as described by Banker et al.. Concentration was evaluated by LC/MS-MS. CYP inhibition was performed in human liver microsomes as described in [28]. Analysis of the respective metabolites was performed by HPLC-MS/MS. Transporter inhibition analysis was also performed in overexpressing cell lines. Respective metabolites for each specific transporter substrate were analyzed by fluorometry or scintillation counting, and % inhibition of control values were calculated. P-glycoprotein transporter substrate assessment was performed by bidirectional permeability analysis (apical A to basolateral B pH 7.4/7.4, and basolateral B to apical A pH 7.4/7.4) in the Caco-2 cell line with and without verapamil, as described in [26]. The results were expressed as ×10^−6 cm/s (Papp) and as % recovery. The efflux ratio was calculated as Papp(B→A)/Papp(A→B). CYP450 induction was assessed in human hepatocytes by measuring the mRNA levels of seven CYP isoforms via qPCR, as described in [40]. The compound was tested at 1, 10, and 100 μM, and fold-induction values were compared with predefined cut-off thresholds for each isoform and hepatocyte lot.

[4] = biological target: OAT1 (Homo sapiens, UniProt Q4U2R8); assay: as above; format: in vitro ADME; details: SLC family, n = 2, read-out: Drug transport inhibition OAT1
Chain of OAT1 (Q4U2R8 whole entry): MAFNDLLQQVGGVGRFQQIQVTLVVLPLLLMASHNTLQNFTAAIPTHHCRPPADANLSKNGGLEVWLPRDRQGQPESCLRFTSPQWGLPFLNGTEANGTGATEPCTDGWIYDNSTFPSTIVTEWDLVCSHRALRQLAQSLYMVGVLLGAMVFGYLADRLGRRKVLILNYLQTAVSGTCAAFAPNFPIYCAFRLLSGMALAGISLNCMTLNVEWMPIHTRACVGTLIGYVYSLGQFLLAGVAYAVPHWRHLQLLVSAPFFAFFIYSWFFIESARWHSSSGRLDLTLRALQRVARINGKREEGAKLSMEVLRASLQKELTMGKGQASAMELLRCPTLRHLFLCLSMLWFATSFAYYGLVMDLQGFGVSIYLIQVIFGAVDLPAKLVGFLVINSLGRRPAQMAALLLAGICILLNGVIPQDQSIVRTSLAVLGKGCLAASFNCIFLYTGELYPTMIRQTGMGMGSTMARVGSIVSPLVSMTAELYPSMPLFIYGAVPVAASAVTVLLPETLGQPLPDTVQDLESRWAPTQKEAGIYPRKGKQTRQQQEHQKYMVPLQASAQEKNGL
Procedure: as §1, §2

[5] = biological target: OCT1 (Homo sapiens, UniProt O15245); assay: as above; format: in vitro ADME; details: SLC family, n = 2, read-out: Drug transport inhibition OCT1
Chain of OCT1 (O15245 whole entry): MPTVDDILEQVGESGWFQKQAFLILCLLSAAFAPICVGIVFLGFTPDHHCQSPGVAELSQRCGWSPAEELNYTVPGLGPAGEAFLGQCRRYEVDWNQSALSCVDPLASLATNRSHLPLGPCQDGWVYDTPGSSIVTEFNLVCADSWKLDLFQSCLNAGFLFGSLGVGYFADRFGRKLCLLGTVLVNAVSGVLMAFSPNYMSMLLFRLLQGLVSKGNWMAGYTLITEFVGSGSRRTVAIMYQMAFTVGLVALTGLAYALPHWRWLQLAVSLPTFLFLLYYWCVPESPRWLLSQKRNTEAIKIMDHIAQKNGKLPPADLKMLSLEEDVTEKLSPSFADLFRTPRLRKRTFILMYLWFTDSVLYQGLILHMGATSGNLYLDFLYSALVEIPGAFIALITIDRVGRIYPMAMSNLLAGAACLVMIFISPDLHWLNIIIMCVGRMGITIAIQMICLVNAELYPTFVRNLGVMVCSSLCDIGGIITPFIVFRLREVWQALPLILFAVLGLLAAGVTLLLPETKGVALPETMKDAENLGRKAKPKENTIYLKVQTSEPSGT
Procedure: as §1, §2

[6] = biological target: P-gp (Homo sapiens, UniProt P08183); assay: as above; format: in vitro ADME; details: ABC family, n = 2, read-out: Drug transport inhibition P-gp
Chain of P-gp (P08183 whole entry): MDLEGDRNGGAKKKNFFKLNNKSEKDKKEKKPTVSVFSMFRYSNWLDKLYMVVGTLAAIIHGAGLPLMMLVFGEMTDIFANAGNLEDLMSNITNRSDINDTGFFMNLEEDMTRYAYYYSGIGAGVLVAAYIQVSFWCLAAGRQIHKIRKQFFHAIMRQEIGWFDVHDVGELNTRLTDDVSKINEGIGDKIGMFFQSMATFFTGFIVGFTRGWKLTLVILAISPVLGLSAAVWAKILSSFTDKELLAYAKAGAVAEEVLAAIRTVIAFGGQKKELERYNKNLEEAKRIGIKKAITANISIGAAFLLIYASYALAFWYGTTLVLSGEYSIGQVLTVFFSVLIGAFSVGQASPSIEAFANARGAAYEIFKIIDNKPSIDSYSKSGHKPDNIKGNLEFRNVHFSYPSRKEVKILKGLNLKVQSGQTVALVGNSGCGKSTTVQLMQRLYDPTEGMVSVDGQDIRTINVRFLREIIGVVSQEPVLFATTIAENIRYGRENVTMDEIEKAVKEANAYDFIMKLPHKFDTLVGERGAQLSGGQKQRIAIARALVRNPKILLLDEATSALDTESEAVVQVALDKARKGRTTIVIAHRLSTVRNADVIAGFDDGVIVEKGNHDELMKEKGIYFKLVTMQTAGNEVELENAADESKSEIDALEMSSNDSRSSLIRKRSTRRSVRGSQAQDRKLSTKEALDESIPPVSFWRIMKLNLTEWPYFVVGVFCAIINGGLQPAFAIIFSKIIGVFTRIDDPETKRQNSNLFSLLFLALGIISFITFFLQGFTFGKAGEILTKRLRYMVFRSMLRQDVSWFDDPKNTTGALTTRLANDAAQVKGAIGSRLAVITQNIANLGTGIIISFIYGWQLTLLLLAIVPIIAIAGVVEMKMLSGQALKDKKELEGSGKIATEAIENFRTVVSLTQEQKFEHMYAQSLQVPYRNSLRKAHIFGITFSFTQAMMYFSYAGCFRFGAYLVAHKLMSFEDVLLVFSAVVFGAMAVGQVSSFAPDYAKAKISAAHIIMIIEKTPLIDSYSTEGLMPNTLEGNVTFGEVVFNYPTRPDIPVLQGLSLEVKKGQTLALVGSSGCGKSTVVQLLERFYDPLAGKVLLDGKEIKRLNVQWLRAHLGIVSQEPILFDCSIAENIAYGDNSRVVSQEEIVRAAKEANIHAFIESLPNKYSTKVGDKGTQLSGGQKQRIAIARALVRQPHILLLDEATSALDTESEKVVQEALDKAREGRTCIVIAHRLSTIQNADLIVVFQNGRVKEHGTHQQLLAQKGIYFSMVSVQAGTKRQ
Procedure: as §1, §2

[7] = biological target: T2, hERG channel (Homo sapiens, UniProt Q12809); assay: hERG automated whole-cell patch-clamp in hERG CHO-K1 cells; format: cell-based; details: for hERG inhibition IC50 / pIC50: tail current, hERG CHO-K1 cells, 0.1 to 10 µM, n = 2; for pIC50: read-out: hERG inhibition IC50
T2 construct: host or cells: CHO-K1
T2 sequence (Q12809 whole entry): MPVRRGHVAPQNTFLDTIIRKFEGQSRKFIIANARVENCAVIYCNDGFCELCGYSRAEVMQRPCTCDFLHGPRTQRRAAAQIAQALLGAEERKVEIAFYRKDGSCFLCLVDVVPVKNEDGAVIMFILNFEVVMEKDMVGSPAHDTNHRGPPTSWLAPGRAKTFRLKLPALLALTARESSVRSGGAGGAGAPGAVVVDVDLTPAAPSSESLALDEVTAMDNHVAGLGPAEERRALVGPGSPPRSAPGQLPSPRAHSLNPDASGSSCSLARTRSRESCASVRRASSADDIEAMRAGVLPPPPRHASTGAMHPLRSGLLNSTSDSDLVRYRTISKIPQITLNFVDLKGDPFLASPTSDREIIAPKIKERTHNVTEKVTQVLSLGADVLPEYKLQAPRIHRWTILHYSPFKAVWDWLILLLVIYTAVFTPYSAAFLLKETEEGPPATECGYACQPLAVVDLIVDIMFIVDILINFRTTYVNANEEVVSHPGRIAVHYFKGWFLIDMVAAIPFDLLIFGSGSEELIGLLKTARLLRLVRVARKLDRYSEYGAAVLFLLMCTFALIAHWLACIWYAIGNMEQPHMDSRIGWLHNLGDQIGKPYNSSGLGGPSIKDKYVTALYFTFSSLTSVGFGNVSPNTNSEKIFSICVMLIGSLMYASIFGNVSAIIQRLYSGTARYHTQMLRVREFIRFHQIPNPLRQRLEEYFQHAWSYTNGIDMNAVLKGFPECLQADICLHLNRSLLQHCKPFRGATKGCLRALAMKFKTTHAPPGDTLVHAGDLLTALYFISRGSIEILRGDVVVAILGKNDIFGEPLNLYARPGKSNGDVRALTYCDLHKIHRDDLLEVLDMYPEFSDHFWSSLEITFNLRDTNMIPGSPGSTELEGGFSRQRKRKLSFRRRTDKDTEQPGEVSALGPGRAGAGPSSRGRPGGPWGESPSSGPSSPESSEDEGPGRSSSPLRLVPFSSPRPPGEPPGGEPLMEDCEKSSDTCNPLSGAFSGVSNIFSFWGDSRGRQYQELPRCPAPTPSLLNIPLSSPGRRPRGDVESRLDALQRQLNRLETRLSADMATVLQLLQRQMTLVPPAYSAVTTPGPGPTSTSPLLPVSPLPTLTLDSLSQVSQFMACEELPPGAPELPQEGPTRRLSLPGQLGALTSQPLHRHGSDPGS
Procedure: Cardiac toxicity is a leading cause of drug development failure. Early safety profiling includes evaluation of the potassium voltage-gated channel subfamily H member 2 (KCNH2 or hERG) channel, the only in vitro assay mandated by regulatory agencies to predict proarrhythmic risk. […] Importantly, an IC50 (hERG)/Ki (σ1) ratio exceeding 100 is advised for cardiac safety; all compounds met this criterion.
Cardiotoxicity analysis was performed by Eurofins Cerep (Poitiers, France) as described in [41]. Rapidly, hERG CHO-K1 cells were used to perform automated whole-cell patch-clamp. Compounds were evaluated in duplicate from 0.1 to 10 µM. The degree of inhibition (%) was determined by measuring the tail current amplitude, which was induced by a one-second test pulse to −40 mV after a two-second pulse to +20 mV, before and after drug incubation for 5 min at room temperature. After normalization, activities were expressed as the % inhibition of tail current. […] The concentration–response relationship of each compound was constructed from the percentage reductions in current amplitude by sequential concentrations.

[8] = n = 2, read-out: Human liver microsome intrinsic clearance

With `CN(CCC(=O)NCc1ccc(C#N)cc1)Cc1ccccc1` [Compound 6, 3-(Benzylmethylamino)-N-(4-cyanobenzyl)propanamide] the “Dissociation of the S1R-BiP complex (in words)” value [1] was “slight and less significant reduction”, the half-life at 10 µM ([2]; as in running text, read-out: Human liver microsome half-life) was > 1 h and the half-life at 10 µM ([2]; n = 2, read-out: Human liver microsome half-life t1/2) was > 1 h. For the same compound, the microsomal CLint at 10 µM [2, 8] was < 116 µL/min/mg, the microsomal CLint at 10 µM ([2]; read-out: Human liver microsome clearance) was < 115 µL/min/mg and the inhibition at 10 µM [3] was -5.8%. It also gave an inhibition at 10 µM [4] of -25.8%, an inhibition at 10 µM [5] of 2.4% and an inhibition at 10 µM [6] of 4.7%. For the same compound, the “IC50 (hERG)/Ki (σ1)” value ([7]; ratio) was 143, the “hERG inhibition IC50” value [7] was “micromolar range” and the pIC50 [7] was 6.10.
For `CN(CCC(=O)NCc1cccc(Cl)c1)Cc1ccccc1` [Compound 2, 3-(Benzylmethylamino)-N-(3-chlorobenzyl)propanamide], the “Dissociation of the S1R-BiP complex (in words)” value [1] was “significant, dose-dependent dissociation”, the “Dissociation of S1R-BiP complex in the presence of NE-100 (in words)” value ([1]; co-treatment with NE-100 (10 µM)) was “completely inhibited” and the microsomal CLint at 10 µM [2, 8] was 135 µL/min/mg. For the same compound, the inhibition at 10 µM [3] was -9%, the inhibition at 10 µM [4] was -23.1% and the inhibition at 10 µM [5] was 19.9%. For the same compound, the inhibition at 10 µM [6] was 4.7%, the “hERG inhibition IC50” value [7] was “micromolar range” and the pIC50 [7] was 5.17.
